Two molecules from patent publication US20070225242A1, “Method and composition for treating and preventing tumor metastasis in vivo” (The Board of Trustees of the Leland Stanford Junior …, priority 2005, published 2007) can be followed below.

Type in all cases: cell-based
In one data set the test system is MDA231 and SiHa cells. Put plainly: In vitro invasion assay (Matrigel-coated inserts). The settings on record: various human cancer cells; 24 hr oxygen deprived. As for the experimental part: The first step of the metastatic process is cell invasion. […] The invasion of various human cancer cells in vitro was examined. […] Because LOX is a copper-dependent enzyme that can act intracellularly or extracellularly, cells were treated with bathocuprione disulphonate (BCS), a copper chelator that cannot permeate the cell membrane.
Invasive behavior was examined in vitro as previously described. Briefly, cells were serum deprived for 24 h then 2.5×10^4 cells were seeded in triplicate on both Matrigel-coated and uncoated inserts, moved to chambers containing 750 μl of FBS as a chemo-attractant and incubated at in normoxic or oxygen deprived conditions for 24 hr. Treatments with beta-aminoproprionitrile or bathocuprione disulphonate (Sigma) were performed 24 h prior to serum deprivation, and continued throughout the experiment.

The test system of another data set is human cancer cells. In words: Cell viability. Particulars: data not shown.
The subject of another data set is FAK. In words: FAK phosphorylation (phospho-FAK immunoblot). Particulars: cells expressing LOX shRNA transfected with mature LOX. The source says:
Acquisition of motility is required before cells can migrate and invade. Invasive cell migration is a multi-step process^17 that commences with pseudopod protrusion at the leading edge driven by actin polymerization, resulting in focal adhesion formation and the activation of integrin and focal adhesion kinase (FAK). […] LOX protein expression extended along hairlike fibers protruding from the cell surface into the collagen matrix. […] Remodeling of the actin cytoskeleton with increased formation of stress fibers and focal adhesion in MDA231 control cells particularly in hypoxia was observed, which were not seen in cells expressing LOX shRNA.
A role for fibronectin (FN) was sought, because it was strongly associated with LOX expression in the breast cancer microarray data set that was analyzed (data not shown), is reported to regulate invasion, bind to integrins and interact with LOX, and is hypoxia induced. […] FAK phosphorylation could be induced in the cells expressing LOX shRNA by transfection with mature LOX (but not catalytically dead LOX), confirming a role for LOX in FAK phosphorylation. […]
Methods were performed as previously described. […] LOX was analyzed by using a rabbit polyclonal antibody raised against a synthetic peptide of human LOX (EDTSCDYGYHRRFA (SEQ ID NO:1); Open Biosystems). […] Quantification was performed with ImageQuant software.

Turning to `Cc1cc(-c2ccc(S(=O)(=O)O)cc2)c2ccc3c(-c4ccc(S(=O)(=O)O)cc4)cc(C)nc3c2n1` [BCS, bathocuprione disulphonate], the “increased invasion under hypoxia or anoxia” value in the data set on MDA231 and SiHa cells is “prevented the enhanced invasion of hypoxic cells”. In addition, the cell viability result in the data set on human cancer cells is given as “Neither treatment with BAPN nor treatment with BCS affected cell viability”.

B1: catalase: catalase (Sigma), removes hydrogen peroxide, a by-product of LOX activity (protein, UniProt P00432 2-527, looked up)
Catalase: ADNRDPASDQMKHWKEQRAAQKPDVLTTGGGNPVGDKLNSLTVGPRGPLLVQDVVFTDEMAHFDRERIPERVVHAKGAGAFGYFEVTHDITRYSKAKVFEHIGKRTPIAVRFSTVAGESGSADTVRDPRGFAVKFYTEDGNWDLVGNNTPIFFIRDALLFPSFIHSQKRNPQTHLKDPDMVWDFWSLRPESLHQVSFLFSDRGIPDGHRHMNGYGSHTFKLVNANGEAVYCKFHYKTDQGIKNLSVEDAARLAHEDPDYGLRDLFNAIATGNYPSWTLYIQVMTFSEAEIFPFNPFDLTKVWPHGDYPLIPVGKLVLNRNPVNYFAEVEQLAFDPSNMPPGIEPSPDKMLQGRLFAYPDTHRHRLGPNYLQIPVNCPYRARVANYQRDGPMCMMDNQGGAPNYYPNSFSAPEHQPSALEHRTHFSGDVQRFNSANDDNVTQVRTFYLKVLNEEQRKRLCENIAGHLKDAQLFIQKKAVKNFSDVHPEYGSRIQALLDKYNEEKPKNAVHTYVQHGSHLSAREKANL
Regarding B1, in the data set on FAK, the “FAK phosphorylation induced by transfection with mature LOX” value is given as “could be prevented”.
